Experimental data from publication PMC7297445, “Pharmacokinetic/Pharmacodynamic Determination and Preclinical Pharmacokinetics of the β-Lactamase Inhibitor ETX1317 and Its Orally Available Prodrug ETX0282” (ACS Infectious Diseases, 2020).
Values after ≈ are worked out from the molar mass of the structure shown.

How the values were obtained:
E. coli ARC2687 = assay: MIC, broth microdilution (CLSI); type: cell-based; conditions: Escherichia coli, ARC2687; combination at 1:2 ratio cefpodoxime:ETX1317, MIC of CPD
Experimental: (§1) MICs were determined utilizing a 1:2 ratio of cefpodoxime:ETX1317. […] The isolates utilized in the present study (Table 1) were broadly insensitive to CPD, presumably due to the presence of ESBLs and carbapenemases expressed in these strains. The addition of ETX1317 restored CPD activity to ≤1 μg/mL across all the tested isolates.
(§2) The MIC of each isolate was determined using the broth microdilution method following CLSI guidelines of document M07-A7 (CLSI M07-A7).

E. coli ARC4419 = assay: MIC, broth microdilution (CLSI); type: cell-based; conditions: Escherichia coli, combination at 1:2 ratio cefpodoxime:ETX1317, MIC of CPD
Experimental: as §1, §2

E. coli NMC101 = assay: MIC, broth microdilution (CLSI); type: cell-based; conditions: Escherichia coli, combination at 1:2 ratio cefpodoxime:ETX1317, MIC of CPD
Experimental: as §1, §2

K. pneumoniae ARC4420 = assay: MIC, broth microdilution (CLSI); type: cell-based; conditions: Klebsiella pneumoniae, combination at 1:2 ratio cefpodoxime:ETX1317, MIC of CPD
Experimental: as §1, §2

K. pneumoniae ARC4486 = assay: MIC, broth microdilution (CLSI); type: cell-based; conditions: Klebsiella pneumoniae, combination at 1:2 ratio cefpodoxime:ETX1317, MIC of CPD
Experimental: as §1, §2

K. pneumoniae ARC4488 = assay: MIC, broth microdilution (CLSI); type: cell-based; conditions: Klebsiella pneumoniae, ARC4488; combination at 1:2 ratio cefpodoxime:ETX1317, MIC of CPD
Experimental: as §1, §2

K. pneumoniae ARC5118 = assay: MIC, broth microdilution (CLSI); type: cell-based; conditions: Klebsiella pneumoniae, ARC5118; combination at 1:2 ratio cefpodoxime:ETX1317, MIC of CPD
Experimental: as §1, §2

[1] = tested on: E. coli strain (ATCC 25922); assay: MIC; type: cell-based; conditions: Escherichia coli, ATCC25922; susceptible strain
From the text: All in vivo efficacy studies were supported with PK of ETX1317 and CPD following oral administration of ETX0282 and CPDP. For the purposes of understanding the exposure-PD response relationship, total systemic concentrations of ETX1317 and cefpodoxime were normalized to unbound drug levels after accounting for protein binding with percent unbound estimates of 93% and 66%, respectively, in mouse plasma (Table S2). An in vivo dose range study with CPDP administered alone against a susceptible E. coli strain (ATCC 25922, CPD MIC = 0.5 μg/mL) was completed initially in a murine neutropenic thigh model to confirm its PK/PD target. In this study a 50 mg/kg oral dose of CPDP administered q6h was consistent with achieving 1–log kill over 24 h. […] Oral exposure was generally dose proportional to 50 mg/kg; however, it became less than dose proportional at ≥200 mg/kg.
as §2

[2] = tested on: Enterobacteriaceae isolates; assay: Hollow-fiber and chemostat models, strains combined; type: cell-based, E. coli, K. pneumoniae; conditions: infused alone, both models
Experimental: The PK/PD driver of ETX1317 was assessed in the presence of CPD in both hollow-fiber[28]−[31] and chemostat[32]in vitro infection model systems. In all cases, CPD was administered q12h via a 2 h infusion and eliminated with a 2 h half-life, with the concentration of drug exceeding the MIC (the MIC of CPD in the presence of ETX1317 at a 1:2 ratio) for 50% of the dosing interval for each strain. Representative Emax plots are shown graphically for Escherichia coli ARC2687 in the hollow-fiber model and Klebsiella pneumoniae ARC4420 in the chemostat system (Figure 2). […] This could partially be attributed to the distribution of the concentration ranges utilized for the hollow-fiber infection model (HFIM) where most of the data scatter occurred in the efficacious dose range for lower MIC strains. It is important to note that initial evaluation of K. pneumoniae ARC4420 and ARC5118 was completed in the HFIM but rapid degradation of CPD, presumably through accumulation of β-lactamases in the extra-capillary space of the cartridge precluded a reliable assessment of the PK/PD driver with these strains in this model.[32] […] In both the HFIM and chemostat models the optimum critical threshold of ETX1317 was established through iterative Emax fitting of a range of ETX1317 concentrations from 0.5× to 2× the CPD:ETX1317 MIC value. In the HFIM, %Time > ETX1317 CT of 2× MIC provided the highest correlation to observed activity which appeared to be independent to the apparent intrinsic activity of ETX1317 (as reflected by ETX1317 MICBLI of K. pneumoniae ARC4486 vs ARC4488). […] In both models CPD infused alone mimicked vehicle control as expected with similar growth of +2 to 4 log10 CFU/mL.
PK/PD-derived exposure targets for BLIs have utilized various approaches for clinical dose setting. The use of a singular critical threshold value independent of MIC has been used for recent BL/BLI combinations such as ceftazidime/avibactam[34] aztreonam/avibactam,[35] but this has been problematic to correlate activity across a broad range of MICs. More recent work with ceftolozane/tazobactam[36] and other BLI combinations[37],[38] considers a critical threshold value that varies proportionally to the MIC value. […] Convergence of the data to a threshold value related to MIC simplifies dose setting and, in this case, appears to be consistent across a broad range of susceptibility (0.125–1 μg/mL).
Dose range and dose fractionation were performed in hollow-fiber infection model (HFIM) and chemostat (one-compartment) in vitro infection model. […] CPD concentrations were targeted to achieve exposure of ∼50%Time > MIC determined in the presence of ETX1317. […] Bacterial burden (CFU/mL) was serially assessed by sampling (500 μL) from the extra-capillary space of the HFIM cartridge at predetermined time points. […]

Plasma protein binding = type: in vitro ADME, mouse; conditions: mouse plasma; read-out: percent unbound
Experimental: Plasma protein binding was determined by rapid equilibrium dialysis. Plasma was freshly prepared from blood samples drawn in to EDTA (anticoagulant) containing tubes. Plasma was prepared using a table-top centrifuge and spun per instruction of the tube manufacturer and specifications (Beckton, Dickinson and Company, Franklin Lakes, NJ) and placed on ice prior to use.
Pooled plasma samples were centrifuged at 2000 rpm (approximately 1400g) for 15 min at 4 °C to remove debris. Approximately 90% of the clear supernatant fraction was transferred to a separate tube. Samples (500 μL) were then spiked with a 100× stock solution 100 μM, 0.5 mM, and 10 mM ETX1317 in DMSO respectively for 1, 5, and 100 μM final concentrations, transferred to the top of the filter chambers, and allowed to equilibrate for 15 min prior to centrifugation. The filtrate tubes were centrifuged at 14000g for 15 min at 4 °C. Next, 50 μL of the filtrate was precipitated with 300 μL of acetonitrile containing 250 ng/mL of carbutamide as the internal standard and the samples were analyzed by LC/MS/MS analysis.

[3] = cited from earlier work

MIC (E. coli ARC2687): > 64 µg/mL
MIC (E. coli ARC4419): 64 µg/mL
MIC (E. coli NMC101): > 64 µg/mL
MIC (K. pneumoniae ARC4420): > 64 µg/mL
MIC (K. pneumoniae ARC4486): > 64 µg/mL
MIC (K. pneumoniae ARC4488): > 64 µg/mL
MIC (K. pneumoniae ARC5118): > 64 µg/mL
MIC [1]: 0.5 µg/mL (≈ 1.17 µM)
fraction unbound at 15 min (Plasma protein binding): 0.66
Structure (SMILES): COCC1=C(C(=O)O)N2C(=O)[C@@H](NC(=O)/C(=N\OC)c3csc(N)n3)[C@H]2SC1 [cefpodoxime]
growth [2]: +2 to 4 log10 CFU/mL
% of dosing interval with mean unbound concentrations exceeding at least 0.5 μg/mL ([3]; 400 mg q12h (800 mg/day)): greater than 50%
half-life in humans ([3]; humans): 2 h
F% ([3]; oral proxetil ester prodrug, top dose 400 mg q12h): ≈ 50%
